Two compounds from patent publication US20200239530A1, “COMPOUNDS AND METHODS OF MODULATING PROTEIN DEGRADATION” (Vividion Therapeutics, Inc., priority 2017, published 2020) can be followed below.

For assay [1], the target named is T1, SETD1A Histone-lysine N-methyltransferase SETD1A (Homo sapiens, UniProt O15047).
T1 construct: Cells were resuspended in cold PBS on ice and sonicated with a probe sonicator to achieve lysis; endogenous in cells
The assay can be described thus: Cysteine liganding, probe competition. The assay is classed as binding. An outline of the steps:
(§1)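 Probe competition in native proteome: 5 mg/ml lysate, compound 1 hr 25° C, then desthiobiotin iodoacetamide (10 mM stock) 1 hr 25° C; acetone ppt, urea/DTT reduction, iodoacetamide alkylation, trypsin, streptavidin pull-down.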

Assay [2] deals with T2, GOLGA2 Golgin subfamily A member 2 (Homo sapiens, UniProt Q08379).
T2 construct: Cells were resuspended in cold PBS on ice and sonicated with a probe sonicator to achieve lysis; endogenous in cells
T2 sequence (Q08379 1-1002): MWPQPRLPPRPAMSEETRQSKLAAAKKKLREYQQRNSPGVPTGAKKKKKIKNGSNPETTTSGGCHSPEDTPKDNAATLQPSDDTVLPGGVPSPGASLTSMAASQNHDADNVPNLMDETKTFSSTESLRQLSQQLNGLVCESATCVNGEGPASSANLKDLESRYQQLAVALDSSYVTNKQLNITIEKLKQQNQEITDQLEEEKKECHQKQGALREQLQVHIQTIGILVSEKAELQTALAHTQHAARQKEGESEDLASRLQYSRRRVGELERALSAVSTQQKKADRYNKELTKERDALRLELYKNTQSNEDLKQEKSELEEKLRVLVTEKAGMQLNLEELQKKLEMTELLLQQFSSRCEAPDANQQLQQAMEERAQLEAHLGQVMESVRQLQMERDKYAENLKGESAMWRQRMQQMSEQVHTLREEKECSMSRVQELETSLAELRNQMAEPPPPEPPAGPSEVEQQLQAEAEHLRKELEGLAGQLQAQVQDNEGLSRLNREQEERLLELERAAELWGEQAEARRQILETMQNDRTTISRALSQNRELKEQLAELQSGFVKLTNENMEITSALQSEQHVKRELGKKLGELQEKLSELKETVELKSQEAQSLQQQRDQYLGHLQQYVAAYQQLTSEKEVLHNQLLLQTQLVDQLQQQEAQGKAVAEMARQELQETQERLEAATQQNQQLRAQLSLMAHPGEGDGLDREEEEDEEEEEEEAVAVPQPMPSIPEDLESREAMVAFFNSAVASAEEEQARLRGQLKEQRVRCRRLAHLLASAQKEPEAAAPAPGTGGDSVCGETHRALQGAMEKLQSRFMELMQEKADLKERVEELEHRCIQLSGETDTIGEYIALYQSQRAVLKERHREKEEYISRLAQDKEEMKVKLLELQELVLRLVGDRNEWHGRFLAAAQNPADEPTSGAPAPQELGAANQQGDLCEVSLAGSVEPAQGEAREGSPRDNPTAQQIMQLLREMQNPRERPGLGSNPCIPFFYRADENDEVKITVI
Kind of assay: Cysteine liganding, probe competition. The assay is classed as binding. In a few lines: as §1

T1 sequence (O15047 whole entry): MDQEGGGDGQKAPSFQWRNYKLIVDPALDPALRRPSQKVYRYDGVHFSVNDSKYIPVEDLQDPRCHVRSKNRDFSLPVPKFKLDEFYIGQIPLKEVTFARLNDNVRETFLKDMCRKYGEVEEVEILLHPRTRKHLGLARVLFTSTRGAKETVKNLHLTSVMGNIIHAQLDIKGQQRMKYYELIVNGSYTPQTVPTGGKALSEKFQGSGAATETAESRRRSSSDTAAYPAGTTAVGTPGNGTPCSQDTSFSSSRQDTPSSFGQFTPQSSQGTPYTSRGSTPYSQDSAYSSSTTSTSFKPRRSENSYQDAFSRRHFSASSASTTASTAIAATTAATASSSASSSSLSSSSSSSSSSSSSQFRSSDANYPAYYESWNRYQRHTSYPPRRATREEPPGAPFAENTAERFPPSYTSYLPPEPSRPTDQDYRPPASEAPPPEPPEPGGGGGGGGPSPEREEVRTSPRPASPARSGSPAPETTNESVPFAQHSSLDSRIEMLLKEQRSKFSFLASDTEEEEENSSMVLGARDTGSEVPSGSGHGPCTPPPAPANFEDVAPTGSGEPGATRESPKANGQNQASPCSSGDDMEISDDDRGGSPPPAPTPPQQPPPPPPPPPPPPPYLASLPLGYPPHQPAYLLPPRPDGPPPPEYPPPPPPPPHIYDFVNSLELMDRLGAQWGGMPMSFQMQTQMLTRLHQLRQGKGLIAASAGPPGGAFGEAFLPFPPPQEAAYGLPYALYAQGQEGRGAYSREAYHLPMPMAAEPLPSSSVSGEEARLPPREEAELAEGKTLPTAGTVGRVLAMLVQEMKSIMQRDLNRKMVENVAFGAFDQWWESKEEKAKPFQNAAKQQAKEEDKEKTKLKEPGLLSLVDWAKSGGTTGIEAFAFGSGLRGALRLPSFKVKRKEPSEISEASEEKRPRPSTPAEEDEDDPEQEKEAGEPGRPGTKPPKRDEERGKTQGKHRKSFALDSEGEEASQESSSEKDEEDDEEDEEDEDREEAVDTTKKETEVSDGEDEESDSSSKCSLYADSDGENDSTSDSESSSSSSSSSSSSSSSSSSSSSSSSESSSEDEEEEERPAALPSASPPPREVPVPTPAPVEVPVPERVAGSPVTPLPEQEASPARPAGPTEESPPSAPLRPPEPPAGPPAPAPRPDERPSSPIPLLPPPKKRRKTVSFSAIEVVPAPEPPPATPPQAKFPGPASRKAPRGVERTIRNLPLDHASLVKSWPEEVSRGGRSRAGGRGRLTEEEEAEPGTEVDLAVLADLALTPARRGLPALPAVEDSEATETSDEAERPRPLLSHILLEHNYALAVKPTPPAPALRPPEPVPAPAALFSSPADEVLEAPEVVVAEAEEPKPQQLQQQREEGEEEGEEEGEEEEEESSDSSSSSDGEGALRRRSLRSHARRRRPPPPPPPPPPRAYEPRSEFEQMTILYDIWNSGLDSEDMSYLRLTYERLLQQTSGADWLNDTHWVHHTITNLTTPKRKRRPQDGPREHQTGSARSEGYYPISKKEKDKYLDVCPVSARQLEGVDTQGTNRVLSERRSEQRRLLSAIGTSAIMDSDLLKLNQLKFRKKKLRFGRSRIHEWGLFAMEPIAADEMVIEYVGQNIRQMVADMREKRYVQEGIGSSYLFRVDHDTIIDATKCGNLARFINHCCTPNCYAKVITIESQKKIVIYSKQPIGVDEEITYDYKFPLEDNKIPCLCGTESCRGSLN

Consider `O=C(CCl)Nc1cc(C(F)(F)F)cc(C(F)(F)F)c1` [KBO3], for which, in assay [1] (uniprot O15047), the “100 Max” value is 15.12, the 100 ave was −0.4575, the “500 Max” value came out at 40.15 and the 500 ave was 38.365. In addition, in assay [2] (uniprot Q08379), the “100 Max” value stood at 1.85, the 100 ave is recorded as 1.85, the “500 Max” value is 54.38 and the 500 ave is 54.38.

Turning to `COc1ccc2c(c1)CCCN2C(=O)CCl` [KB02], the Liganded result is “YES” in assay [1] (SETD1A Res# 1648, uniprot O15047) and “YES” in assay [2] (GOLGA2 Res# 794, uniprot Q08379).
